# Structures can show the parent of a compound that is named as a salt.
# Experiments:
# Format in all cases: cell-based
# [1] = system: L929 cells; assay: Necroptosis assay in L929 cells (TNF-α, z-VAD; cell viability by ATP levels); settings: Mus musculus, TNF-α (40 ng/mL), z-VAD (20 μM), 48 hours
# Experimental: […] Then the cells were treated with TNF-α (40 ng/mL) and z-VAD (20 μM) for 48 hours, and the viability of cells was quantified by detecting adenosine triphosphate (ATP) levels. DMSO pretreatment group was used as negative controls, Nec-1 pretreatment group was used as positive controls.
# [2] = system: HT29 cells; assay: Necroptosis assay in HT29 cells (TNF-α, Smac mimetic, z-VAD; cell viability); settings: Homo sapiens, HT-29; TNF-α (40 ng/mL), Smacmimetic (100 nM), z-VAD (20 μM), 48 hours
# Experimental: Human colon cancer HT29 cells were used in a necroptosis assay. For this assay, HT29 cells were added to 96-well plates and then were pre-treated with 10 μM of the test compound for one hour. Then the cells were treated with TNF-α (40 ng/mL), Smacmimetic (100 nM) and z-VAD (20 μM) for 48 hours, and the viability of cells was quantified. DMSO pretreatment group was used as negative controls, Nec-1 pretreatment group was used as positive controls.
# In Table 2, (1) “ND” indicates “not detected;” (2) Explanation for inhibition %: Taking Compound B14 as an example, its inhibition % was 30% (50 nM). It means that the when Compound B14 at a concentration of 50 nM was used in the HT29 Cell Assay, the necrosis of cells were inhibited at 30%.
# [3] = system: HT29 cells; assay: as above; settings: Homo sapiens, HT-29; inhibition of necrosis in HT29 cells, compound at 50 nM
Compound,IC50 [1],IC50 [2],inhibition at 0.05 µM [3]
O=C(Nc1nc2ccc(-c3cnc4c(c3)N(C(=O)OC3CCOCC3)CCO4)cc2s1)C1CC1 [Compound B16],0.0015 µM,0.004 µM,–
CC(=O)Nc1nc2ccc(-c3cnc4c(c3)N(C(=O)OC3CCCCC3)C[C@H](C)O4)cc2s1 [Compound B38],0.015 µM,3.5 µM,–
O=C(Nc1nc2ccc(-c3cnc4c(c3)N(C(=O)OC3CCCCC3)CCO4)cc2s1)C1CC1 [Compound B3],0.00059 µM,0.0005 µM,–
O=C(Nc1cn2nc(-c3cnc4c(c3)N(C(=O)OC3CCCCC3)CCO4)ccc2n1)C1CC1 [Compound B13],0.0007 µM,0.0013 µM,–
"CN1CCC(OC(=O)N2CCc3ncc(-c4ccc5nc(NC(=O)C6CC6)sc5c4)cc32)CC1 [Compound B68, 1-methylpiperidin-4-yl-6-(2-(cyclopropanecarboxamido)benzo[d]thiazol-6-yl)-2,3-dihydro-1H-pyrrolo[3,2-b]pyridine-1-carboxylate]",0.0283 µM,0.03 µM,–
CC(=O)Nc1cn2nc(-c3cnc4c(c3)N(C(=O)OC3CCOCC3)CCO4)ccc2n1 [Compound B20],–,–,20%
CC(C)(C)OC(=O)Nc1cn2nc(-c3cnc4c(c3)N(C(=O)OC3CCOCC3)CCO4)ccc2n1 [Compound B22],0.08 µM,0.114 µM,25%
O=C(Nc1cn2cc(-c3cnc4c(c3)N(C(=O)OC3CCOCC3)CCO4)ccc2n1)C1CC1 [Compound B19],0.01 µM,0.02 µM,–
O=C(Nc1nc2ccc(-c3cnc4c(c3)N(C(=O)OCC3CC3)CC4)cc2s1)C1CC1 [Compound B66],0.00073 µM,0.00039 µM,–
O=C(Nc1cn2nc(-c3cnc4c(c3)N(C(=O)OC3CCOCC3)CCO4)ccc2n1)C1CC1 [Compound B21],0.031 µM,0.05 µM,–
"O=C(Nc1nc2ccc(-c3cnc4c(c3)N(C(=O)OC3CCS(=O)(=O)CC3)CC4)cc2s1)C1CC1 [Compound B69, 1,1-dioxidotetrahydro-2H-thiopyran-4-yl6-(2-(cyclopropanecarboxamido)benzo[d]thiazol-6-yl)-2,3-dihydro-1H-pyrrolo[3,2-b]pyridine-1-carboxylate]",0.015 µM,0.0048 µM,–
Nc1nc2ccc(-c3cnc4c(c3)N(C(=O)OC3CCCCC3)CCO4)cc2s1 [Compound B1],0.0036 µM,0.011 µM,–
CC(=O)Nc1nc2ccc(-c3cnc4c(c3)N(C(=O)OC3CCCCC3)CCO4)cn2n1 [Compound B7],0.02 µM,0.046 µM,–
CC(=O)Nc1cn2nc(-c3cnc4c(c3)N(C(=O)OC3CCOCC3)CC4)ccc2n1 [Compound B57],0.09 µM,0.6 µM,–
Nc1cn2nc(-c3cnc4c(c3)N(C(=O)OC3CCCCC3)CCO4)ccc2n1 [Compound B11],0.0089 µM,0.5 µM,–
O=C(Nc1nc2ccc(-c3cnc4c(c3)N(C(=O)CC3CCOCC3)CC4)nc2s1)C1CC1 [Compound B63],0.0085 µM,0.025 µM,–
CC(=O)Nc1nc2ccc(-c3cnc4c(c3)N(C(=O)OC(C)C3CC3)CCO4)cc2s1 (centres unmarked) [Compound B24],0.005 µM,0.018 µM,–
CC(=O)Nc1cn2cc(-c3cnc4c(c3)N(C(=O)OC3CCCCC3)CCO4)ccc2n1 [Compound B8],0.0015 µM,0.001 µM,–
"CNC(=O)Nc1nc2ccc(-c3cnc4c(c3)N(C(=O)OC3CCOCC3)CC4)cc2s1 [Compound B60, Tetrahydro-2H-pyran-4-yl6-(2-(3-methylureido)benzo[d]thiazol-6-yl)-2,3-dihydro-1H-pyrrolo[3,2-b]pyridine-1-carboxylate]",0.0028 µM,0.0013 µM,–
CC(=O)Nc1nc2ccc(-c3cnc4c(c3)N(C(=O)OC3CCOCC3)CCO4)cc2s1 [Compound B15],0.0088 µM,0.02 µM,–
CC(=O)Nc1cn2cc(-c3cnc4c(c3)N(C(=O)OC3CCOCC3)CCO4)ccc2n1 [Compound B18],–,–,10%
O=C(Nc1cn2cc(-c3cnc4c(c3)N(C(=O)OC3CCCCC3)CCO4)ccc2n1)C1CC1 [Compound B9],0.0002 µM,0.0005 µM,–
CC(=O)Nc1nc2ccc(-c3cnc4c(c3)N(C(=O)OC3CCCOC3)CCO4)cc2s1 (centres unmarked) [Compound B25],0.01 µM,0.017 µM,–
CC(C)OC(=O)N1CCc2ncc(-c3ccc4nc(NC(=O)C5CC5)sc4c3)cc21 [Compound B65],0.0045 µM,0.0032 µM,–
"Nc1nc2ccc(-c3cnc4c(c3)N(C(=O)OC3CCOCC3)CCO4)cc2s1 [Compound B14, tetrahydro-2H-pyran-4-yl7-(2-aminobenzo[d]thiazol-6-yl)-2,3-dihydro-1H-pyrido[2,3-b][1,4]oxazine-1-carboxylate hydrochloride]",0.0126 µM,–,30%
Nc1cn2nc(-c3cnc4c(c3)N(C(=O)OC3CCOCC3)CCO4)ccc2n1 [Compound B23],0.0115 µM,0.147 µM,10%
O=C(Nc1nc2ccc(-c3cnc4c(c3)N(C(=O)OC3CCC(F)(F)CC3)CC4)cc2s1)C1CC1 [Compound B70],0.0013 µM,0.0012 µM,–
"CC(=O)Nc1nc2ccc(-c3cnc4c(c3)N(C(=O)OC3CCCCC3)C[C@@H](C)O4)cc2s1 [Compound B37, Cyclohexyl-(R)-7-(2-acetamidobenzo[d]thiazol-6-yl)-3-methyl-2,3-dihydro-1H-pyrido[2,3-b][1,4]oxazine-1-carboxylate]",0.03 µM,0.032 µM,–

# Reference: US11339177B2, “Heteroaryl compounds as inhibitors of necrosis, composition and method using the same” (ACCRO BIOSCIENCE INC., priority 2017, dated 2022)
